Source: publication PMC12668310, “High‐Throughput Synthesis and Screening of a Cyanimide Library Identifies Selective Inhibitors of ISG15‐Specific Protease mUSP18” (Angewandte Chemie (International Ed. in English), 2025)

Each compound was assayed against T1, OTUB2 (Homo sapiens, UniProt Q96DC9) (assay: High-throughput screening, Ub-RhoMP, single dose 1.25 µM). Conditions: individual amine building block (plate NCN-5); read-out: BB %inhibition OTUB2.
T1 sequence (Q96DC9 1-234): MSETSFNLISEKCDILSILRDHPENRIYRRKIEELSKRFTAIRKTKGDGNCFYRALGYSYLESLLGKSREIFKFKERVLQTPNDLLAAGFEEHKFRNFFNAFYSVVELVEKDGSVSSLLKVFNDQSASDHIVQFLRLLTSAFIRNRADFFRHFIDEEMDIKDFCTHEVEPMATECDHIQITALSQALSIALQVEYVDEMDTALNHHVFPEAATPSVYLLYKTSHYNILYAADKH
Type: biochemical
Parameters: (1-234); His6 (cleaved yes); made in house
Experimental: (§1) Since the in‐plate synthesis was conducted in 1536‐well Echo plates, the compounds could readily be transferred from these plates into 1536‐well assay plates using acoustic liquid dispensing (Figure 2a) and subjected to HTS. We screened the whole 7536 compound library against a panel of twelve enzymes, including three DUBs from the UCH family, two DUBs from the OTU family, five DUBs from the USP family, plus ISG15 protease USP18, and SUMO protease SENP1. Each compound was tested at a single dose of 1.25 µM, assuming full conversion (10 mM in DMSO of the formed products) during the in‐plate synthesis, using the fluorogenic assay described above. […] The compounds are sorted by the amine building blocks (BB1‐16), and within each BB, sorted by carboxylic acid (CA1‐471), thereby providing a comprehensive and systematic overview of the overall inhibition by each BB and CA combination. Some interesting patterns can be obtained from this map. […] Indeed, BB10 is the privileged scaffold for UCHL1 as it originates from UCHL1 inhibitor 5 (Figure 1). […] On the other hand, OTUD1 and USP32 show a much higher hit rate, and this is even more pronounced for USP30 and ISG15 protease mUSP18, each showing many active compounds distributed over several BB's.
(§2) Purified recombinant enzymes used in this study
(§3) High-throughput screening
(§4) The screens were performed at room temperature in “flat bottom, non-treated, black […]
(§5) µM. The compounds (10 nL each) were transferred from the 1 mM daughter plates to the […]
(§6) Four wells containing DMSO
(§7) (10 nL) and four wells containing NEM (10 mM final concentration) were used in each plate […]
(§8) solution (1.33x final concentration) was added to each well, followed by incubation for 30 min.
(§9) Next, 2 µL of a substrate solution (4x final concentration) was added to each well (Ub-RhoMP[2]
(§10) After 1h or 2h incubation the
(§11) The percentage inhibition was calculated for each well using the […]
(§12) Where FIx is the fluorescence intensity of each well, FIpos is the average fluorescence intensity of the positive (NEM) control wells, and FIneg is the average fluorescence intensity of the negative (DMSO) control wells.

Row | SMILES | inhibition at 1.25 µM
1 | N#CN1CC[C@H](CN)C1 [BB11] | -6.8%
2 | N#CN1C[C@@H]2C[C@H]1CN2 [BB12] | -6%
3 | N#CN1C[C@H](N)[C@@H](O)C1 [BB13] | 5.6%
4 | N#CN1CCC2(CCNC2)C1 (stereo not shown) [BB14] | 6.4%
5 | N#CN1C[C@@H](F)[C@@H](N)C1 [BB15] | -0.269%
6 | N#CN1CCC(n2cc(N)cn2)CC1 [BB16] | 0.0345%

These compounds were tested against T2, USP32 (Homo sapiens, UniProt Q8NFA0) in the same assay as above. Conditions: crude in-plate synthesized compound, 1.25 µM assuming full conversion.
T2 construct: (1-1604); His-tag (N); made in house
T2 sequence (Q8NFA0 whole entry): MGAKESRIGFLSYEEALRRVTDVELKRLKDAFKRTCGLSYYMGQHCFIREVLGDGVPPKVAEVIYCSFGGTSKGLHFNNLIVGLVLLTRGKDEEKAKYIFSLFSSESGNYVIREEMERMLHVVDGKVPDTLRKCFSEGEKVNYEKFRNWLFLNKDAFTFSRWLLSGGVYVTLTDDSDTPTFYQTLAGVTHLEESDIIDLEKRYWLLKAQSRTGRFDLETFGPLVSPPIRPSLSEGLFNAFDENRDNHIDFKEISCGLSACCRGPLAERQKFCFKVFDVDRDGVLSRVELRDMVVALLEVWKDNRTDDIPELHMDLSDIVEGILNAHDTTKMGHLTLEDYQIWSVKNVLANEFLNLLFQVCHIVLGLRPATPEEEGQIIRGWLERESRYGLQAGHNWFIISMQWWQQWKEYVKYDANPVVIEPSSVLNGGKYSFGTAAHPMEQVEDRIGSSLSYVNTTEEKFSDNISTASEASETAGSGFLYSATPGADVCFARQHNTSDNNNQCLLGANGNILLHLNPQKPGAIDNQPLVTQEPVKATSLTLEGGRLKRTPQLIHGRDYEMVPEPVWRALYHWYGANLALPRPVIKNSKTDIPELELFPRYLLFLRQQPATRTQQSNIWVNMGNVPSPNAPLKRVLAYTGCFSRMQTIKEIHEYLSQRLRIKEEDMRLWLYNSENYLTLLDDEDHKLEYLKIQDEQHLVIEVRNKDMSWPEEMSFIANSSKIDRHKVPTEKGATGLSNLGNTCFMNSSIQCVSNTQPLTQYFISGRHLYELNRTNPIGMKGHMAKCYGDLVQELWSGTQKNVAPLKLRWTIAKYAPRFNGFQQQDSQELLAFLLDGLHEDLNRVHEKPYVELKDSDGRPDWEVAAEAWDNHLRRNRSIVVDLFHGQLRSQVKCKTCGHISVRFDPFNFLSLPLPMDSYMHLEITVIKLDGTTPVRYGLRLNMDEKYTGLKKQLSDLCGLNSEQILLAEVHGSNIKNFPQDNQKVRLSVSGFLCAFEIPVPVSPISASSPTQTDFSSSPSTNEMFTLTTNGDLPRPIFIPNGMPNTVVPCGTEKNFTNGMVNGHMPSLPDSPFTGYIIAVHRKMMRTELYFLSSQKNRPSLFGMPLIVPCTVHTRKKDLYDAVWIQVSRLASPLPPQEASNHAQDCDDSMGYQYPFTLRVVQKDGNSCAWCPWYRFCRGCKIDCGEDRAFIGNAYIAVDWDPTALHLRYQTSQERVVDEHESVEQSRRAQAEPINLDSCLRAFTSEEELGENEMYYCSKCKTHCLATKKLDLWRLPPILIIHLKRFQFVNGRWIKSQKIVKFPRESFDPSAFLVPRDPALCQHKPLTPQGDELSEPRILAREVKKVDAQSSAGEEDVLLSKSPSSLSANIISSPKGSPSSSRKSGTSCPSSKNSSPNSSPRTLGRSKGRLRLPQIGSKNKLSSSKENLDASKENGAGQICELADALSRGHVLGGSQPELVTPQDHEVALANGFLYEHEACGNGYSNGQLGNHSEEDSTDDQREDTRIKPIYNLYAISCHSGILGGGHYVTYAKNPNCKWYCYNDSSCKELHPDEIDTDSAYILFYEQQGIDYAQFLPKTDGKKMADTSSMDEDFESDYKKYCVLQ
Type: biochemical
Experimental: as §1, §2, §3, §4, §5, §6, §7, §8, §9, §10, §11, §12

Row | SMILES | %inhibition USP32
7 | N#CN1CC[C@@H](NC(=O)c2nc(N3CCCC3)ncc2Cl)C1 [BB01CA90] | 19.4%
8 | N#CN1CC[C@@H](NC(=O)C(Cc2c[nH]cn2)NS(=O)(=O)c2ccc(Cl)cc2)C1 (stereo partly shown) [BB01CA91] | 22.5%
9 | N#CN1CC[C@@H](NC(=O)Cc2csc(-c3cnccn3)n2)C1 [BB01CA92] | 21.1%
10 | N#CN1CC[C@@H](NC(=O)CCN(Cc2ccccc2)S(=O)(=O)c2c(Cl)cccc2Cl)C1 [BB01CA93] | 75.0%
11 | N#CN1CC[C@@H](NC(=O)c2ncoc2-c2cccs2)C1 [BB01CA94] | 15.3%

Same assay, conditions: individual amine building block (plate NCN-5); read-out: BB %inhibition USP32

Row | SMILES | inhibition at 1.25 µM
12 | N#CN1CC[C@H](CN)C1 [BB11] | -1.5%
13 | N#CN1C[C@@H]2C[C@H]1CN2 [BB12] | -1.2%
14 | N#CN1C[C@H](N)[C@@H](O)C1 [BB13] | 1.1%
15 | N#CN1CCC2(CCNC2)C1 (stereo not shown) [BB14] | 0.344%
16 | N#CN1C[C@@H](F)[C@@H](N)C1 [BB15] | -3.1%
17 | N#CN1CCC(n2cc(N)cn2)CC1 [BB16] | -6.1%

What follows are compounds tested against T3, UCHL3 (Homo sapiens, UniProt P15374) in the same assay as above. Conditions: crude in-plate synthesized compound, 1.25 µM assuming full conversion.
T3 construct: (1-230); made in house
T3 sequence (P15374 1-230): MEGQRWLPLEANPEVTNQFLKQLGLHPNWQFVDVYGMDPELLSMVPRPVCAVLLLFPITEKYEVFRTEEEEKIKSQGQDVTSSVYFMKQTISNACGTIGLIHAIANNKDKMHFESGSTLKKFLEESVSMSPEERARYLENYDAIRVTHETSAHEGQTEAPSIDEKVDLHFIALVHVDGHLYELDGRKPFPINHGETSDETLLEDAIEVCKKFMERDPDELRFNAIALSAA
Type: biochemical
Experimental: as §1, §2, §3, §4, §5, §6, §7, §8, §9, §10, §11, §12

Row | SMILES | %inhibition UCHL3
18 | N#CN1CC[C@@H](NC(=O)c2nc(N3CCCC3)ncc2Cl)C1 [BB01CA90] | 19.3%
19 | N#CN1CC[C@@H](NC(=O)C(Cc2c[nH]cn2)NS(=O)(=O)c2ccc(Cl)cc2)C1 (stereo partly shown) [BB01CA91] | 16.3%
20 | N#CN1CC[C@@H](NC(=O)Cc2csc(-c3cnccn3)n2)C1 [BB01CA92] | 17.1%
21 | N#CN1CC[C@@H](NC(=O)CCN(Cc2ccccc2)S(=O)(=O)c2c(Cl)cccc2Cl)C1 [BB01CA93] | 16.3%
22 | N#CN1CC[C@@H](NC(=O)c2ncoc2-c2cccs2)C1 [BB01CA94] | 16.0%

Same assay, conditions: individual amine building block (plate NCN-5); read-out: BB %inhibition UCHL3

Row | SMILES | inhibition at 1.25 µM
23 | N#CN1CC[C@H](CN)C1 [BB11] | -5.7%
24 | N#CN1C[C@@H]2C[C@H]1CN2 [BB12] | -4.6%
25 | N#CN1C[C@H](N)[C@@H](O)C1 [BB13] | 8%
26 | N#CN1CCC2(CCNC2)C1 (stereo not shown) [BB14] | 8.6%
27 | N#CN1C[C@@H](F)[C@@H](N)C1 [BB15] | 1.4%
28 | N#CN1CCC(n2cc(N)cn2)CC1 [BB16] | 2.3%

The compounds below were run against T4, USP24 (Homo sapiens, UniProt Q9UPU5) in the same assay as above. Conditions: crude in-plate synthesized compound, 1.25 µM assuming full conversion.
T4 construct: (1-2620); His10; purchased Biotechne E-616
T4 sequence (Q9UPU5 whole entry): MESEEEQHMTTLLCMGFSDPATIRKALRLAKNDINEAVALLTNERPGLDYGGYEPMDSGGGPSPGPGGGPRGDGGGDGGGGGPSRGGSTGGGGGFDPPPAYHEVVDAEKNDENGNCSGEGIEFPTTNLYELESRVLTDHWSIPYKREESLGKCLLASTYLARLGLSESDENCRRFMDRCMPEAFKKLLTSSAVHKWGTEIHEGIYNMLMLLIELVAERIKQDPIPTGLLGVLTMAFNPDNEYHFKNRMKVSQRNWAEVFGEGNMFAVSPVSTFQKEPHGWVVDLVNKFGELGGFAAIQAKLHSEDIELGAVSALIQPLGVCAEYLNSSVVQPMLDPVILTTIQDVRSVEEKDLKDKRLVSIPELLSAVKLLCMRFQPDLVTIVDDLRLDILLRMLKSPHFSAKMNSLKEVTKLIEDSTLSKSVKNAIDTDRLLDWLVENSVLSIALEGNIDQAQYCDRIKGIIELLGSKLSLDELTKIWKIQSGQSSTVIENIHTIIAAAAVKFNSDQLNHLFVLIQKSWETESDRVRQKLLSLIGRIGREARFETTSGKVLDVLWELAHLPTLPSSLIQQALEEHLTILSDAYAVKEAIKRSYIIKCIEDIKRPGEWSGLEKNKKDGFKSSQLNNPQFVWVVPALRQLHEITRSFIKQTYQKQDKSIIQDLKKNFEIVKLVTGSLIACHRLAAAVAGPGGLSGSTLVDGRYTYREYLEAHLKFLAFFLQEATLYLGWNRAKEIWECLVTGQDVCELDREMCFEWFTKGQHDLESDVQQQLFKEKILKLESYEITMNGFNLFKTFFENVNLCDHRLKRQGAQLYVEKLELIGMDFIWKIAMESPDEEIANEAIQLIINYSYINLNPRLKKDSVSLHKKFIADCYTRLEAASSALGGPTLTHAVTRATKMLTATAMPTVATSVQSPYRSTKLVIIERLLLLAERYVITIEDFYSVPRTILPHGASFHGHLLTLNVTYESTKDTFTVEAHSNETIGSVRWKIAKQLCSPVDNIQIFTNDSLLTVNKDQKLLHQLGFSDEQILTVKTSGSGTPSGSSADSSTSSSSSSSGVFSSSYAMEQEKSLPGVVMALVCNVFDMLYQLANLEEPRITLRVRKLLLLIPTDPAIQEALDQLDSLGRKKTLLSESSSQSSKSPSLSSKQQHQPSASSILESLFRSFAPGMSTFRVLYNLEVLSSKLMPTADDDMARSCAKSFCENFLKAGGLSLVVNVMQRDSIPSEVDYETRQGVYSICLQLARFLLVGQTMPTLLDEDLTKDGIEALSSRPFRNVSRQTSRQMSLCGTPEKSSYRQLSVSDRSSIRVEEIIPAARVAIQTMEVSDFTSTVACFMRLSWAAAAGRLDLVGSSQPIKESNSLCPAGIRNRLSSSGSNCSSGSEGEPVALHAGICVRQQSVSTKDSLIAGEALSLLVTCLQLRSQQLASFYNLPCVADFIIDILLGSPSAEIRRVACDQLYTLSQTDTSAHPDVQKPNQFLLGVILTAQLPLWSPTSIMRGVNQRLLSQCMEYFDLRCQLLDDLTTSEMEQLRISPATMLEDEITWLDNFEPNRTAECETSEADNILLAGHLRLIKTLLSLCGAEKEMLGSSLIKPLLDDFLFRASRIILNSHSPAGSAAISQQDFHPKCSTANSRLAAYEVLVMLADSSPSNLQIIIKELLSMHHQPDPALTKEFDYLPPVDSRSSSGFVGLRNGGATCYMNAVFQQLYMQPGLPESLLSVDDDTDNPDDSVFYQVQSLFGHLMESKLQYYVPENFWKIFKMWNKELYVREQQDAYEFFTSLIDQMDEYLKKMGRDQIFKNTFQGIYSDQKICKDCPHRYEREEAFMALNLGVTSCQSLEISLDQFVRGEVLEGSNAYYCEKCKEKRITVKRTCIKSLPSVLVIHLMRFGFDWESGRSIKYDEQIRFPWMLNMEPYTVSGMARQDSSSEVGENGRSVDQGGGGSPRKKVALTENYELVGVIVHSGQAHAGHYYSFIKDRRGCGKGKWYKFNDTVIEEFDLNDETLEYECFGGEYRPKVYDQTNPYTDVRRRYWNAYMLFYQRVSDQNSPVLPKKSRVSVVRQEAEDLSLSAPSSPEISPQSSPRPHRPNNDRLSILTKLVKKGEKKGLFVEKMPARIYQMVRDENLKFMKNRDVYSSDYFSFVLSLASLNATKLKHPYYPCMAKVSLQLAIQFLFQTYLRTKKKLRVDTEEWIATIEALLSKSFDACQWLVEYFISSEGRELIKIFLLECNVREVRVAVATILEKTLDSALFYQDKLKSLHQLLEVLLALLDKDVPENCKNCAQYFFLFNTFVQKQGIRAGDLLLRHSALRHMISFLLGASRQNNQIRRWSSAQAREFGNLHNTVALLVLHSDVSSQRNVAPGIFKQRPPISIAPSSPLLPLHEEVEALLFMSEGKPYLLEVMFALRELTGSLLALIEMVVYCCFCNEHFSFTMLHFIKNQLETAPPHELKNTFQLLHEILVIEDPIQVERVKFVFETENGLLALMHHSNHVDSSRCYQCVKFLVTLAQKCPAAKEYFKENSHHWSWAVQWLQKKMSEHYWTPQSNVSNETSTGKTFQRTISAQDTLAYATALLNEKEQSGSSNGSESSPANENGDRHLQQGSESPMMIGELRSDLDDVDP
Type: biochemical
Experimental: as §1, §2, §3, §4, §5, §6, §7, §8, §9, §10, §11, §12

Row | SMILES | %inhibition USP24
29 | N#CN1CC[C@@H](NC(=O)c2nc(N3CCCC3)ncc2Cl)C1 [BB01CA90] | 0.9%
30 | N#CN1CC[C@@H](NC(=O)C(Cc2c[nH]cn2)NS(=O)(=O)c2ccc(Cl)cc2)C1 (stereo partly shown) [BB01CA91] | -0.9%
31 | N#CN1CC[C@@H](NC(=O)Cc2csc(-c3cnccn3)n2)C1 [BB01CA92] | 3.2%
32 | N#CN1CC[C@@H](NC(=O)CCN(Cc2ccccc2)S(=O)(=O)c2c(Cl)cccc2Cl)C1 [BB01CA93] | 9.1%
33 | N#CN1CC[C@@H](NC(=O)c2ncoc2-c2cccs2)C1 [BB01CA94] | -1.8%

Same assay, conditions: individual amine building block (plate NCN-5); read-out: BB %inhibition USP24

Row | SMILES | inhibition at 1.25 µM
34 | N#CN1CC[C@H](CN)C1 [BB11] | -6.5%
35 | N#CN1C[C@@H]2C[C@H]1CN2 [BB12] | -3.7%
36 | N#CN1C[C@H](N)[C@@H](O)C1 [BB13] | 5.7%
37 | N#CN1CCC2(CCNC2)C1 (stereo not shown) [BB14] | 3.8%
38 | N#CN1C[C@@H](F)[C@@H](N)C1 [BB15] | 5.6%
39 | N#CN1CCC(n2cc(N)cn2)CC1 [BB16] | 9.2%

These compounds were tested against T5, UCHL1 (Homo sapiens, UniProt P09936) in the same assay as above. Conditions: crude in-plate synthesized compound, 1.25 µM assuming full conversion.
T5 construct: (1-223); made in house
T5 sequence (P09936 1-223): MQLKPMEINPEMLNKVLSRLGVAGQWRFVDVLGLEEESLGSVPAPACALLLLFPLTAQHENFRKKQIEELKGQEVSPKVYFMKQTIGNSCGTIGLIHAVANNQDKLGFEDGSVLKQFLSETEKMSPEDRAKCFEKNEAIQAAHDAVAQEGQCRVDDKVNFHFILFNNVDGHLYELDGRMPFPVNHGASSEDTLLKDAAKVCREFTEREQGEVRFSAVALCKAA
Type: biochemical
Experimental: as §1, §2, §3, §4, §5, §6, §7, §8, §9, §10, §11, §12

Row | SMILES | %inhibition UCHL1
40 | N#CN1CC[C@@H](NC(=O)c2nc(N3CCCC3)ncc2Cl)C1 [BB01CA90] | 15.1%
41 | N#CN1CC[C@@H](NC(=O)C(Cc2c[nH]cn2)NS(=O)(=O)c2ccc(Cl)cc2)C1 (stereo partly shown) [BB01CA91] | 11.2%
42 | N#CN1CC[C@@H](NC(=O)Cc2csc(-c3cnccn3)n2)C1 [BB01CA92] | 8.8%
43 | N#CN1CC[C@@H](NC(=O)CCN(Cc2ccccc2)S(=O)(=O)c2c(Cl)cccc2Cl)C1 [BB01CA93] | 9.7%
44 | N#CN1CC[C@@H](NC(=O)c2ncoc2-c2cccs2)C1 [BB01CA94] | 8.0%

Same assay, conditions: individual amine building block (plate NCN-5); read-out: BB %inhibition UCHL1

Row | SMILES | inhibition at 1.25 µM
45 | N#CN1CC[C@H](CN)C1 [BB11] | -2.6%
46 | N#CN1C[C@@H]2C[C@H]1CN2 [BB12] | -1.2%
47 | N#CN1C[C@H](N)[C@@H](O)C1 [BB13] | 0.8%
48 | N#CN1CCC2(CCNC2)C1 (stereo not shown) [BB14] | 1%
49 | N#CN1C[C@@H](F)[C@@H](N)C1 [BB15] | 1%
50 | N#CN1CCC(n2cc(N)cn2)CC1 [BB16] | 1.3%

The compounds below were run against T6, UCHL5 (Homo sapiens, UniProt Q9Y5K5) in the same assay as above. Conditions: crude in-plate synthesized compound, 1.25 µM assuming full conversion.
T6 construct: (1-329); purchased Novus biochemicals NBP1-72315
T6 sequence (Q9Y5K5 1-329): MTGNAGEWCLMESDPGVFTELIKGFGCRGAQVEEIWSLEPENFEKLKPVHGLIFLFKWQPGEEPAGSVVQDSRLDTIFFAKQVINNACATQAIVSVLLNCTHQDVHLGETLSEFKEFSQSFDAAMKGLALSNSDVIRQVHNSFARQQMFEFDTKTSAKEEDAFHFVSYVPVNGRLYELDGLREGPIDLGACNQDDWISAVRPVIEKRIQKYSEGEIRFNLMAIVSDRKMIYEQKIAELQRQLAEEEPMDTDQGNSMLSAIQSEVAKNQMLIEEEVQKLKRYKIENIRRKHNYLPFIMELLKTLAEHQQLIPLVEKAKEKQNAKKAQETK
Type: biochemical
Experimental: as §1, §2, §3, §4, §5, §6, §7, §8, §9, §10, §11, §12

Row | SMILES | %inhibition UCHL5
51 | N#CN1CC[C@@H](NC(=O)c2nc(N3CCCC3)ncc2Cl)C1 [BB01CA90] | 6.9%
52 | N#CN1CC[C@@H](NC(=O)C(Cc2c[nH]cn2)NS(=O)(=O)c2ccc(Cl)cc2)C1 (stereo partly shown) [BB01CA91] | 8.4%
53 | N#CN1CC[C@@H](NC(=O)Cc2csc(-c3cnccn3)n2)C1 [BB01CA92] | 6.2%
54 | N#CN1CC[C@@H](NC(=O)CCN(Cc2ccccc2)S(=O)(=O)c2c(Cl)cccc2Cl)C1 [BB01CA93] | 5.2%
55 | N#CN1CC[C@@H](NC(=O)c2ncoc2-c2cccs2)C1 [BB01CA94] | 4.4%

Same assay, conditions: individual amine building block (plate NCN-5); read-out: BB %inhibition UCHL5

Row | SMILES | inhibition at 1.25 µM
56 | N#CN1CC[C@H](CN)C1 [BB11] | -7.1%
57 | N#CN1C[C@@H]2C[C@H]1CN2 [BB12] | -5.3%
58 | N#CN1C[C@H](N)[C@@H](O)C1 [BB13] | 0.225%
59 | N#CN1CCC2(CCNC2)C1 (stereo not shown) [BB14] | -1.4%
60 | N#CN1C[C@@H](F)[C@@H](N)C1 [BB15] | -6%
61 | N#CN1CCC(n2cc(N)cn2)CC1 [BB16] | -7.7%
